Test results as given in patent US12169192B2, “Methods of identifying a hydrocarbon fuel” (Afton Chemical Corporation, priority 2020, dated 2024).

What was measured:
[1] = Partition of marker compound between water and gasoline phases; format: physicochemical; details: for Initial Fluorescence Intensity in Water Phase / Fluorescence Intensity in Water Phase After Partition: gasoline, excitation 540 nm, emission 590 nm; for Initial Fluorescence Intensity in Water Phase: 10 ppb marker; for Fluorescence Intensity in Water Phase After Partition: not background corrected; for Partition Ratio (Kd): water/gasoline, corrected for background
Description: (§1) In this Example, the separation/partition of the marker compound between water and fuel phases was measured. The procedure for this Example included: measure fluorescence of 10 grams of water phase with and without marker compound present to determine background fluorescence. Then, 10 grams of hydrocarbon including 10 ppb of marker compound was added to the water and gently agitated for 1 minute. After mixing, the sample was allowed to completely separate into two phases. Thereafter, the fluorescence of the water phase was re-measured. Since the marker concentration is directly proportional to fluorescence intensity (at 10 ppb and within a range of interest), the Partition Ratio can be calculated from the initial and final tracer fluorescence intensities (corrected for any background fluorescence) from the water phase.
(§2) For this Example, Rhodamine B, Rhodamine 101, and Fluorescein marker compounds were used. For Rhodamine 101 and Rhodamine B measurements, excitation wavelength was 540 nm and emission wavelength was 590 nm. For Fluorescein measurements, excitation wavelength was 470 nm and emission wavelength was 515 nm.

[2] = Partition of marker compound between water and heptane phases; format: physicochemical; details: for Initial Fluorescence Intensity in Water Phase / Fluorescence Intensity in Water Phase After Partition: heptane, excitation 540 nm, emission 590 nm; for Initial Fluorescence Intensity in Water Phase: 10 ppb marker; for Fluorescence Intensity in Water Phase After Partition: not background corrected; for Partition Ratio (Kd): water/heptane, corrected for background
Description: as §1, §2

| Initial Fluorescence Intensity in Water Phase [1] [arb units] | Fluorescence Intensity in Water Phase After Partition [1] [arb units] | Partition Ratio (Kd) [1] | Initial Fluorescence Intensity in Water Phase [2] [arb units] | Fluorescence Intensity in Water Phase After Partition [2] [arb units] | Partition Ratio (Kd) [2] | Structure (SMILES) |
| --- | --- | --- | --- | --- | --- | --- |
| 73.5 | 12.5 | 0.20 | 73 | 20 | 0.35 | O=C([O-])c1ccccc1C1=c2cc3c4c(c2Oc2c1cc1c5c2CCCN5CCC1)CCC[N+]=4CCC3 [Rhodamine 101] |
| 71.5 | 13 | 0.21 | 75 | 21.5 | 0.38 | CCN(CC)c1ccc2c(-c3ccccc3C(=O)O)c3ccc(=[N+](CC)CC)cc-3oc2c1.[Cl-] [Rhodamine B] |
